According to patent US20230167118A1, “DEGRADATION OF BRUTON'S TYROSINE KINASE (BTK) BY CONJUGATION OF BTK INIDBITORS WITH E3 LIGASE LIGAND AND METHODS OF USE” (BEIGENE, LTD., priority 2020, published 2023):

Experiments:
BTK = biological target: T1, BTK (Homo sapiens, UniProt Q06187); experiment: Cell Degradation: BTK degradation in TMD-8 cells, HTRF assay; assay type: cell-based; conditions: 6 h treatment, IC50 (DC50) of BTK degradation
T1 construct: High control=Cell group with added DMSO and without compound, indicating microplate readings without BTK degradation; endogenous in cells; host or cells: TMD-8 cells
Procedure, shortened: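 TMD-8 cells treated 6 h with 8-dose 6-fold dilutions in 0.2% DMSO, then lysed and BTK quantified by HTRF (665/620 nm). Degradation % normalised to high/low controls; DC50 from four-parameter fit, Dmax as maximal degradation.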

HEK-293 cells = experiment: HEK-293 Cytotoxicity Assay (CellTiter-Glo); assay type: cell-based; conditions: Homo sapiens, HEK293, 72 h incubation, CellTiter-Glo luminescence
Procedure, shortened: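 HEK-293 cells treated 72 h with 8 concentrations (4-fold dilutions, 0.2% DMSO final). Viability read by CellTiter-Glo luminescence; IC50 from four-parameter logistic fit of % inhibition.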

T1 sequence (Q06187 whole entry): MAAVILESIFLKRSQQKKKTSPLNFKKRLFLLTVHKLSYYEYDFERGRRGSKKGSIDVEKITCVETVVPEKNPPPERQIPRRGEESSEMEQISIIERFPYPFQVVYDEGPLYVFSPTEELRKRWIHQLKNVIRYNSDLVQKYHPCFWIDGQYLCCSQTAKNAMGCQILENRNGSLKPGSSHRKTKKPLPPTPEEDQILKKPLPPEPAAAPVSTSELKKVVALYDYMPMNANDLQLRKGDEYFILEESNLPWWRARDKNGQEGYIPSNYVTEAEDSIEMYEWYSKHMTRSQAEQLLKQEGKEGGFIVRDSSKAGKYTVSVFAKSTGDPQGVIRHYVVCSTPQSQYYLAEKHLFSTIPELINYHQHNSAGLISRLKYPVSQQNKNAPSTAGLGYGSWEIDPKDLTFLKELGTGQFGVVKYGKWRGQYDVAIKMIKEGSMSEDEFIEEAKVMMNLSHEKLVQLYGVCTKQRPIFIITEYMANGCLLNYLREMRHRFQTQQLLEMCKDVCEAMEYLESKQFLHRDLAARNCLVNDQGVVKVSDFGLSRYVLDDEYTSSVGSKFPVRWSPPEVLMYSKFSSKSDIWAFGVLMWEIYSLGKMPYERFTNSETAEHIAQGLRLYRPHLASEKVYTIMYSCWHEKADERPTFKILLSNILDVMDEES

| Compound | DC50 (BTK) | IC50 (HEK-293 cells) |
| --- | --- | --- |
| Cc1cc(-c2ncnc3[nH]c(-c4ccc(C5CCN(CC6CCN(c7ccc(N8CCC(=O)NC8=O)cc7)CC6)C5)nc4)cc23)ccc1[C@@H](C)NC(=O)c1nc(C(C)(C)C)no1 (stereo partly drawn) [Example 162, 3-(tert-butyl)-N-((1R)-1-(4-(6-(6-(1-((1-(4-(2,4-dioxotetrahydropyrimidin-1(2H)-yl)phenyl)piperidin-4-yl)methyl)pyrrolidin-3-yl)pyridin-3-yl)-7H-pyrrolo[2,3-d]pyrimidin-4-yl)-2-methylphenyl)ethyl)-1,2,4-oxadiazole-5-carboxamide] | 1.6 nM | > 10000 nM |
| Cc1cc(-c2ncnc3[nH]c(-c4c(C)nn(C5CCN(CC6CCN(c7ccc(N8CCC(=O)NC8=O)cc7)CC6)C5)c4C)cc23)ccc1[C@@H](C)NC(=O)c1nc(C(C)(C)C)no1 (stereo partly drawn) [Example 163, 3-(tert-butyl)-N-((1R)-1-(4-(6-(1-(1-((1-(4-(2,4-dioxotetrahydropyrimidin-1(2H)-yl)phenyl)piperidin-4-yl)methyl)pyrrolidin-3-yl)-3,5-dimethyl-1H-pyrazol-4-yl)-7H-pyrrolo[2,3-d]pyrimidin-4-yl)-2-methylphenyl)ethyl)-1,2,4-oxadiazole-5-carboxamide] | 1.32 nM | > 10000 nM |
| Cc1cc(-c2ncnc3[nH]c(-c4ccc(N5CC6(CN(CC7CCN(c8ccc(N9CCC(=O)NC9=O)cc8)CC7)C6)C5)cc4)cc23)ccc1[C@@H](C)NC(=O)c1nc(C(C)(C)C)no1 [Example 164, (R)-3-(tert-butyl)-N-(1-(4-(6-(4-(6-((1-(4-(2,4-dioxotetrahydropyrimidin-1(2H)-yl)phenyl)piperidin-4-yl)methyl)-2,6-diazaspiro[3.3]heptan-2-yl)phenyl)-7H-pyrrolo[2,3-d]pyrimidin-4-yl)-2-methylphenyl)ethyl)-1,2,4-oxadiazole-5-carboxamide] | 1.26 nM | > 10000 nM |
| Cc1cc(-c2ncnc3[nH]c(-c4ccc(N5CCN(CC6CCN(c7ccc(N8CCC(=O)NC8=O)cc7)CC6)CC5)nc4)cc23)ccc1[C@@H](C)NC(=O)c1nc(C2(C)CC2)no1 [Example 166, (R)-N-(1-(4-(6-(6-(4-((1-(4-(2,4-dioxotetrahydropyrimidin-1(2H)-yl)phenyl)piperidin-4-yl)methyl)piperazin-1-yl)pyridin-3-yl)-7H-pyrrolo[2,3-d]pyrimidin-4-yl)-2-methylphenyl)ethyl)-3-(1-methylcyclopropyl)-1,2,4-oxadiazole-5-carboxamide] | 1.61 nM | > 10000 nM |
| Cc1cc(-c2ncnc3[nH]c(-c4ccc(N5CCCN(CC6CCN(c7ccc(N8CCC(=O)NC8=O)cc7)CC6)CC5)cc4)cc23)ccc1[C@@H](C)NC(=O)c1nc(C(C)(C)C)no1 [Example 167, (R)-3-(tert-butyl)-N-(1-(4-(6-(4-(4-((1-(4-(2,4-dioxotetrahydropyrimidin-1(2H)-yl)phenyl)piperidin-4-yl)methyl)-1,4-diazepan-1-yl)phenyl)-7H-pyrrolo[2,3-d]pyrimidin-4-yl)-2-methylphenyl)ethyl)-1,2,4-oxadiazole-5-carboxamide] | 2.61 nM | > 10000 nM |
| Cc1cc(-c2ncnc3[nH]c(-c4cnc(N5CCN(CC6CCN(c7ccc(N8CCC(=O)NC8=O)cc7)CC6)CC5)s4)cc23)ccc1[C@@H](C)NC(=O)c1nc(C(C)(C)C)no1 [Example 168, (R)-3-(tert-butyl)-N-(1-(4-(6-(2-(4-((1-(4-(2,4-dioxotetrahydropyrimidin-1(2H)-yl)phenyl)piperidin-4-yl)methyl)piperazin-1-yl)thiazol-5-yl)-7H-pyrrolo[2,3-d]pyrimidin-4-yl)-2-methylphenyl)ethyl)-1,2,4-oxadiazole-5-carboxamide] | 0.75 nM | > 10000 nM |
| Cc1cc(-c2ncnc3[nH]c(-c4ccc(C5(F)CN(CC6CCN(c7ccc(N8CCC(=O)NC8=O)cc7)CC6)C5)cn4)cc23)ccc1[C@@H](C)NC(=O)c1nc(C(C)(C)C)no1 [Example 173, (R)-3-(tert-butyl)-N-(1-(4-(6-(5-(1-((1-(4-(2,4-dioxotetrahydropyrimidin-1(2H)-yl)phenyl)piperidin-4-yl)methyl)-3-fluoroazetidin-3-yl)pyridin-2-yl)-7H-pyrrolo[2,3-d]pyrimidin-4-yl)-2-methylphenyl)ethyl)-1,2,4-oxadiazole-5-carboxamide] | 0.98 nM | > 10000 nM |
| Cc1cc(-c2ncnc3[nH]c(-c4nn(C)c(C5=CCN(CC6CCN(c7ccc(N8CCC(=O)NC8=O)cc7)CC6)CC5)c4C)cc23)ccc1[C@@H](C)NC(=O)c1nc(C(C)(C)C)no1 [Example 174, (R)-3-(tert-butyl)-N-(1-(4-(6-(5-(1-((1-(4-(2,4-dioxotetrahydropyrimidin-1(2H)-yl)phenyl)piperidin-4-yl)methyl)-1,2,3,6-tetrahydropyridin-4-yl)-1,4-dimethyl-1H-pyrazol-3-yl)-7H-pyrrolo[2,3-d]pyrimidin-4-yl)-2-methylphenyl)ethyl)-1,2,4-oxadiazole-5-carboxamide] | 1.51 nM | > 10000 nM |
| Cc1cc(-c2ncnc3[nH]c(-c4c(C)nn(C5CCN(CCNCC6CCN(c7ccc(N8CCC(=O)NC8=O)cc7)CC6)CC5)c4C)cc23)ccc1[C@@H](C)NC(=O)c1nc(C(C)(C)C)no1 [Example 175, (R)-3-(tert-butyl)-N-(1-(4-(6-(1-(1-(2-(((1-(4-(2,4-dioxotetrahydropyrimidin-1(2H)-yl)phenyl)piperidin-4-yl)methyl)amino)ethyl)piperidin-4-yl)-3,5-dimethyl-1H-pyrazol-4-yl)-7H-pyrrolo[2,3-d]pyrimidin-4-yl)-2-methylphenyl)ethyl)-1,2,4-oxadiazole-5-carboxamide] | 1.97 nM | 7360 nM |
| Cc1cc(-c2ncnc3[nH]c(-c4ccc(C5CCN(CC6CCN(c7ccc(N8CCC(=O)NC8=O)cc7)CC6)C5)cn4)cc23)ccc1[C@@H](C)NC(=O)c1nc(C(C)(C)C)no1 (stereo partly drawn) [Example 176, 3-(tert-butyl)-N-((1R)-1-(4-(6-(5-(1-((1-(4-(2,4-dioxotetrahydropyrimidin-1(2H)-yl)phenyl)piperidin-4-yl)methyl)pyrrolidin-3-yl)pyridin-2-yl)-7H-pyrrolo[2,3-d]pyrimidin-4-yl)-2-methylphenyl)ethyl)-1,2,4-oxadiazole-5-carboxamide] | 1.1 nM | > 10000 nM |
| Cc1cc(-c2ncnc3[nH]c(-c4ccc(C5(F)CCN(CC6CCN(c7ccc(N8CCC(=O)NC8=O)cc7)CC6)C5)cn4)cc23)ccc1[C@@H](C)NC(=O)c1nc(C(C)(C)C)no1 (stereo partly drawn) [Example 177, 3-(tert-butyl)-N-((1R)-1-(4-(6-(5-(1-((1-(4-(2,4-dioxotetrahydropyrimidin-1(2H)-yl)phenyl)piperidin-4-yl)methyl)-3-fluoropyrrolidin-3-yl)pyridin-2-yl)-7H-pyrrolo[2,3-d]pyrimidin-4-yl)-2-methylphenyl)ethyl)-1,2,4-oxadiazole-5-carboxamide] | 0.99 nM | > 10000 nM |

Now those with a lower DC50 (BTK), led by results:

| DC50 (BTK) | Compound | IC50 (HEK-293 cells) |
| --- | --- | --- |
| 0.69 nM | Cc1cc(-c2ncnc3[nH]c(-c4ccc(N5CCN(CC6CCN(c7ccc(N8CCC(=O)NC8=O)cc7)CC6)CC5)cn4)cc23)ccc1[C@@H](C)NC(=O)c1nc(C2(C)CC2)no1 [Example 165, (R)-N-(1-(4-(6-(5-(4-((1-(4-(2,4-dioxotetrahydropyrimidin-1(2H)-yl)phenyl)piperidin-4-yl)methyl)piperazin-1-yl)pyridin-2-yl)-7H-pyrrolo[2,3-d]pyrimidin-4-yl)-2-methylphenyl)ethyl)-3-(1-methylcyclopropyl)-1,2,4-oxadiazole-5-carboxamide] | > 10000 nM |
| 0.52 nM | Cc1cc(-c2ncnc3[nH]c(-c4c(C)nn(C5CN(CC6CCN(c7ccc(N8CCC(=O)NC8=O)cc7)CC6)C5)c4C)cc23)ccc1[C@@H](C)NC(=O)c1nc(C(C)(C)C)no1 [Example 169, (R)-3-(tert-butyl)-N-(1-(4-(6-(1-(1-((1-(4-(2,4-dioxotetrahydropyrimidin-1(2H)-yl)phenyl)piperidin-4-yl)methyl)azetidin-3-yl)-3,5-dimethyl-1H-pyrazol-4-yl)-7H-pyrrolo[2,3-d]pyrimidin-4-yl)-2-methylphenyl)ethyl)-1,2,4-oxadiazole-5-carboxamide] | > 10000 nM |
| 0.17 nM | C[C@@H](NC(=O)c1nc(C(C)(C)C)no1)c1ccc(-c2ncnc3[nH]c(-c4ccc(N5CCN(CC6CCN(c7ccc(N8CCC(=O)NC8=O)cc7)CC6)CC5)cn4)cc23)cc1CO [Example 170, (R)-3-(tert-butyl)-N-(1-(4-(6-(5-(4-((1-(4-(2,4-dioxotetrahydropyrimidin-1(2H)-yl)phenyl)piperidin-4-yl)methyl)piperazin-1-yl)pyridin-2-yl)-7H-pyrrolo[2,3-d]pyrimidin-4-yl)-2-(hydroxymethyl)phenyl)ethyl)-1,2,4-oxadiazole-5-carboxamide] | > 10000 nM |
| 0.25 nM | C[C@@H](NC(=O)c1noc(C(C)(C)C)n1)c1cc(F)c(-c2ncnc3[nH]c(-c4ccc(N5CCN(CC6CCN(c7ccc(N8CCC(=O)NC8=O)cc7)CC6)CC5)cn4)cc23)cc1CO [Example 171, (R)-5-(tert-butyl)-N-(1-(4-(6-(5-(4-((1-(4-(2,4-dioxotetrahydropyrimidin-1(2H)-yl)phenyl)piperidin-4-yl)methyl)piperazin-1-yl)pyridin-2-yl)-7H-pyrrolo[2,3-d]pyrimidin-4-yl)-5-fluoro-2-(hydroxymethyl)phenyl)ethyl)-1,2,4-oxadiazole-3-carboxamide] | > 10000 nM |
| 0.24 nM | Cc1cc(-c2ncnc3[nH]c(-c4ccc(C5(O)CN(CC6CCN(c7ccc(N8CCC(=O)NC8=O)cc7)CC6)C5)cn4)cc23)ccc1[C@@H](C)NC(=O)c1nc(C(C)(C)C)no1 [Example 172, (R)-3-(tert-butyl)-N-(1-(4-(6-(5-(1-((1-(4-(2,4-dioxotetrahydropyrimidin-1(2H)-yl)phenyl)piperidin-4-yl)methyl)-3-hydroxyazetidin-3-yl)pyridin-2-yl)-7H-pyrrolo[2,3-d]pyrimidin-4-yl)-2-methylphenyl)ethyl)-1,2,4-oxadiazole-5-carboxamide] | > 10000 nM |
